Several values for one entry are separate records, joined by “and”; a condition that tells them apart may be missing. Equal values may be shown once. Read-outs that look alike come from different tables or passages of the source. Square brackets hold non-standard residues; d marks the D form. Primed or numbered codes have the meaning given here. Ends that are not written are not given here. Peptide text beside a SMILES is read from it. * marks the point of attachment. d1Nal = N[C@H](Cc1cccc2ccccc12)C(=O)O; Palmitoyl = CCCCCCCCCCCCCCCC(=O)*; PEG2′ = not defined here
How the values were obtained:
[1] = molecular target: T1, Ghrelin receptor (Homo sapiens, UniProt Q92847); test: Inositol phosphate turnover assay in COS-7 cells transfected with the Ghrelin receptor; conditions: for Δeff (%): efficacy, mean ± SEM of |Efficacymax - Efficacymin|; for x-fold over No. 2: EC50 relative to peptide 2
T1 sequence (Q92847 whole entry, species assumed): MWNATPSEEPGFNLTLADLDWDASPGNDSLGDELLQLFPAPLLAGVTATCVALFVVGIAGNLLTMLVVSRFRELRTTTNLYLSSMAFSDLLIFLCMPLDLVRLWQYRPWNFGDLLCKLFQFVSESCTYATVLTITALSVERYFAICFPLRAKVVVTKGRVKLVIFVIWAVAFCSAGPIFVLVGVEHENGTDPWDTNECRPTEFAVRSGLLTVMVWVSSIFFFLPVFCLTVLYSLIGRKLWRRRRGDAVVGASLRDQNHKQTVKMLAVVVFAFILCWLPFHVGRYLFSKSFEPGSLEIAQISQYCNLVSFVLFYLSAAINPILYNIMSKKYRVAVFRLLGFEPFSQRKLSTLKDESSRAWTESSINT
Protocol: Data were analyzed with GraphPad Prism 6.0 program (GraphPad Software, San Diego, CA, USA). EC50, pEC50 and Emax values were obtained from concentration–response curves. All signal transduction assays were performed in duplicate and repeated at least two times independently.

[2] = set-up: species or system mice; conditions: mouse, in vivo
Protocol: (§1) The tumor mice with xenotransplanted PC-3 or DU-145 tumors were used when the tumors reached 0.54 ± 0.34 g or 0.18 ± 0.09 g (mean ± SD, n = 9), respectively. […] The mice were sacrificed one hour after injection and the organs and tissues were extracted. The activity measurements and calculations were carried out as described for the rat biodistribution experiments.

[3] = set-up: species or system rats; conditions: rat, in vivo
[4] = system: PC-3 tumors; test: Biodistribution of 10c in PC-3 tumor bearing mice with blocking; assay type: in vivo; conditions: one hour after injection
Protocol: as §1

[5] = rat, in vivo
Protocol: Biodistribution in distinct organs and tissues of healthy rats was measured at 5 and 60 min after single intravenous injection of the ^68Ga- or ^64Cu-radiotracers 9b-c, 10b-c, and 15b-c in rats (see ^68Ga-tracers in Figure 3 and ^64Cu-tracers in Figure 4).
The molar activity was approximately 30 GBq × mmol^–1 at the time of injection (Table 3). […] Animals were sacrificed at 5 and 60 min post injection. Blood and the major organs were collected, weighed, and counted in a Wallac WIZARD automatic gamma counter (PerkinElmer, Germany). The radioactivity of the samples was decay-corrected and calibrated by comparing the counts in tissue with the counts in aliquots of the injected radiotracer that had been measured in the gamma counter at the same time. The activity amount in organs that could be completely extracted was expressed as percent of injected dose (% ID). The activity concentrations in tissues were calculated as standardized uptake values [SUV = (activity × mL^–1 tissue)/(injected activity/body weight), mL × g^–1)]. The SUV was used for better comparison within animals of different size and weight and with other species and to compare the biodistribution and the PET data.

[6] = system: PC-3 tumors; set-up: species or system mice; conditions: mouse, in vivo
Protocol: (§2) Anesthetized, spontaneously breathing animals were allowed to stabilize for 10 min after preparation. The animals were positioned on a heated bed to maintain the body temperature at 37°C. The PET studies were carried out with a NanoScanPET/CT (Mediso, Hungary) or a microPET P4® (Siemens preclinical solutions, Knoxville, TN, USA). The activity of the injection solution was measured in a well counter (Isomed 2000, Dresden, Germany) cross-calibrated to the PET scanners. A 10 min transmission scan was recorded during this time for each subject by using a rotating point source of ^57Co (microPET). The transmission scans were used to correct the emission scan for γ-ray attenuation caused by body tissues and supporting structures; it was also used to demarcate the body field for image registration. […] At the end of the experiment, the animals were deeply anesthetized and sacrificed by an intravenous injection of potassium chloride. Acquisition was performed in 3D list mode. Emission data were collected continuously. The list mode data were sorted into sinograms with 32 or 38 frames (15 × 10 s, 5 × 30 s, 5 × 60 s, 4 × 300 s, 3 × 600 s, or 9 × 600 s). The data were decay-, scatter-, and attenuation-corrected. The frames from the microPET were reconstructed by Ordered Subset Expectation Maximization applied to 3D sinograms (OSEM3D) with 14 subsets, 15 OSEM3D iterations, 25 maximum a posteriori (MAP) iterations, and 1.8 mm resolution using the […] algorithm (Siemens Preclinical Solutions, Knoxville, TN, USA). The voxel size was 0.07 by 0.07 by 0.12 cm. The PET images measured with the nanoScanPET/CT were reconstructed using a three-dimensional Ordered Subsets Expectation Maximization (3D-OSEM) algorithm (Tera-Tomo, Mediso Ltd., Hungary) into dynamic frames as described and with a voxel size of 0.05 cm. No correction for partial volume effects was applied. The image volume data were converted to Siemens ECAT7 format for further processing and were then analyzed using the ROVER software (ABX GmbH, Radeberg, Germany). Masks for defining three-dimensional regions of interest (ROI) were set and the ROI's were defined by thresholding and ROI time activity curves (TAC) were derived for the subsequent data analysis. […] The ROIs were so determined that no surrounding tissue was included. The ROI data and TAC were further analyzed using R (R is available as Free Software under the terms of the Free Software Foundation's GNU General Public License in source code form) and especially developed program packages (Jörg van den Hoff, Frank Hofheinz, Helmholtz-Zentrum Dresden-Rossendorf, Dresden, Germany).

[7] = system: DU-145 tumors; set-up: species or system mice; conditions: mouse, in vivo
Protocol: as §2

[8] = system: DU-145 tumors; test: Biodistribution of 10c in DU-145 tumor bearing mice with blocking; assay type: in vivo; conditions: one hour after injection
Protocol: as §1

[9] = molecular target: T1, Ghrelin receptor; test: Competitive binding assay with ^125I-His-Ghrelin in COS-7 cells stably transfected with the Ghrelin receptor; set-up: expressed in transfected cells; host or cells: COS-7; conditions: for x-fold over Ghrelin: Ki relative to Ghrelin; for x-fold over 2: Ki relative to peptide 2; for Ki: competition with ^125I-His-Ghrelin, read-out: Ki ± SD
Protocol: Each experiment was performed in triplicates. IC50 values of the binding curves were calculated by nonlinear regression on a sigmoidal dose-response based model by using program GraphPad Prism 6.0. Ki values were calculated by Cheng-Prusoff equation.

[10] = EC50, inverse agonist potency, COS-7 cells transfected with the Ghrelin receptor
[11] = pEC50 ± SEM, COS-7 cells transfected with the Ghrelin receptor
[12] = COS-7 cells transfected with the Ghrelin receptor
[13] = inverse agonist potency, COS-7 cells transfected with the Ghrelin receptor

Row | Compound | Δeff (%) [1] | x-fold over No. 2 [1] | pEC50 ± SEM [1, 12] | EC50 [1, 13] [nM] | also measured
1 | CC(C)C[C@H](NC(=O)[C@@H](Cc1c[nH]c2ccccc12)NC(=O)[C@H](Cc1ccccc1)NC(=O)[C@@H](Cc1cccc2ccccc12)NC(=O)[C@@H](N)CCCCN)C(=O)N[C@@H](CCCCN)C(N)=O [compound 3, K-(D-1-Nal)-FwLK-NH2] (H-K[d1Nal]F[dW]LK-NH2) | 42% and 42 ± 1% |  |  |  | EC50 [1, 10]: 162 nM; EC50 [1, 11]: 158 nM
2 | CC(C)C[C@H](NC(=O)[C@H](CC(C)C)NC(=O)[C@@H](Cc1c[nH]c2ccccc12)NC(=O)[C@H](Cc1ccccc1)NC(=O)[C@@H](Cc1cccc2ccccc12)NC(=O)[C@H](CCCCN)NC(=O)[C@@H](N)CCCCN)C(N)=O [compound 4, KK-(D-1-Nal)-FwLL-NH2] (H-KK[d1Nal]F[dW]LL-NH2) | 63% and 63 ± 2% |  |  |  | EC50 [1, 10]: 13 nM; EC50 [1, 11]: 12.6 nM
3 | CCCCCCCCCCCCCCCC(=O)NCCCC[C@H](NC(=O)[C@H](CC(C)C)NC(=O)[C@@H](Cc1c[nH]c2ccccc12)NC(=O)[C@H](Cc1ccccc1)NC(=O)[C@@H](Cc1cccc2ccccc12)NC(=O)[C@@H](N)CCCCN)C(N)=O [compound 5] (H-K[d1Nal]F[dW]LK(Palmitoyl)-NH2) | 85% and 85 ± 2% |  |  |  | EC50 [1, 10]: 3.5 nM; EC50 [1, 11]: 3.16 nM
4 | CCCCCCCCCCCCCCCC(=O)N[C@@H](CCCCN)C(=O)N[C@@H](CCCCN)C(=O)N[C@H](Cc1cccc2ccccc12)C(=O)N[C@@H](Cc1ccccc1)C(=O)N[C@H](Cc1c[nH]c2ccccc12)C(=O)N[C@@H](CC(C)C)C(=O)N[C@@H](CC(C)C)C(N)=O [compound 6, Palm-KK-(D-1-Nal)-FwLL-NH2] (Palmitoyl-KK[d1Nal]F[dW]LL-NH2) | 86 ± 2% | 2 |  |  | EC50 [1, 10]: 11 nM
5 | K(Palm)-K-(D-1-Nal)-FwLK[^natGa]Ga-NODAGA-NH2 [18a] | 75 ± 6% | 59 | 6.6 ± 0.10 | 267 | 
6 | K-(D-1-Nal)-FwLK(PEG2)-NH2 (K[d1Nal]F[dW]LK(PEG2′)-NH2) [compound 7] |  |  | 6.8 ± 0.10 | 166 | 
7 | K-(D-1-Nal)-FwLK(PEG2)-NH2 [compound 7] | 61 ± 3% | 37 |  |  | 
8 | K[^natGa]Ga-NODAGA-K-(D-1-Nal)-FwLK(Palm)-NH2 [16a] | 90 ± 4% | 3 | 7.9 ± 0.07 | 13.6 | 
9 | PEG2-KK-(D-1-Nal)-FwLL-NH2 [compound 8] | 85 ± 3% | 111 | 6.3 ± 0.08 | 499 | 
10 | PEG2-K[^natGa]Ga-NODAGA-K-(D-1-Nal)-FwLL-NH2 [14a] |  | > 1000 |  | > 1000 | EC50 ([1]; value given in the text): 1800 ± 600 nM
11 | Palm-KK-(D-1-Nal)-FwLK[^natGa]Ga-NODAGA-NH2 [17a] | 85 ± 6% | 132 | 6.2 ± 0.10 | 592 | 
12 | Palm-K[^natGa]Ga-NODAGA-K-(D-1-Nal)-FwLL-NH2 [13a] | 92% and 92 ± 3% | 6 | 7.5 ± 0.06 | 28.7 | 
13 | [^64Cu]Cu-NODAGA-NH-K-K-(D-1-NaI)-F-w-L-L-NH2 [10c] |  |  |  |  | specific tumor uptake relative to the compound of Charron et al. [2]: approximately 10 times; uptake in organs and tissues [2]: > 0.3 SUV; original compound found in the kidneys [3]: 1%; original compound found in the liver [3]: 14%; original compound found in the urine [3]: 6%; tumor to muscle ratio as percent of control ([4]; blocked with 1 mg/kg Ghrelin): 83.4 ± 18.4%; tumor to muscle ratio as percent of control ([4]; blocked with 1 mg/kg KKD): 51.2 ± 4.5%; brain uptake [5]: 0.06-0.1 SUV; activity concentration in tumor [6]: 2.02 ± 0.28 SUV; activity concentration in tumor ([6]; 1 mg/kg): 0.99 ± 0.05 SUV; activity concentration in tumor [7]: 1.34 ± 0.24 SUV; activity concentration in tumor ([7]; 1 mg/kg): 0.68 ± 0.05 SUV; tumor to muscle ratio as percent of control ([8]; blocked with 1 mg/kg Ghrelin): 71.0 ± 10.7%; tumor to muscle ratio as percent of control ([8]; blocked with 1 mg/kg KKD): 59.7 ± 30.2%
14 | [^natGa]Ga-NODAGA-K(Palm)-K-(D-1-Nal)-FwLL-NH2 [12a] | 92% and 92 ± 4% | 5 | 7.7 ± 0.06 | 20.3 | x-fold over Ghrelin [9]: 126; x-fold over 2 [9]: 14; Ki [9]: 66.9 ± 25.7 nM
15 | [^natGa]Ga-NODAGA-K-(D-1-Nal)-FwLL-NH2 [9a] | 88% and 88 ± 8% | 14 | 7.2 ± 0.10 | 64.8 | 
16 | [^natGa]Ga-NODAGA-KK-(D-1-Nal)-FwLK(Palm)-NH2 [15a] | 89 ± 3% | 4 | 7.8 ± 0.05 | 16.5 | x-fold over Ghrelin [9]: 21; x-fold over 2 [9]: 2; Ki [9]: 11 ± 4.3 nM
17 | [^natGa]Ga-NODAGA-KK-(D-1-Nal)-FwLL-NH2 [10a] | 98% and 98 ± 4% | 8 | 7.5 ± 0.07 | 34.7 | x-fold over Ghrelin [9]: 57; x-fold over 2 [9]: 6; Ki [9]: 30.3 ± 7.5 nM

— publication PMC7939532 (Oncotarget, 2021)
